Measured values from ChEMBL document CHEMBL1130306, “Asymmetric synthesis of a conformationally constrained N-phosphonoalkyl dipeptide” (Bioorg Med Chem Lett, 1997).
Calls of active or inactive are those of the source.

Columns and labels:
[1] = biological target: T1, Interstitial collagenase (Homo sapiens) (UniProt P03956); assay: Inhibition of human recombinant fibroblast collagenase (MMP-1) at 10e-4 M (No significant activity)
T1 sequence (whole entry): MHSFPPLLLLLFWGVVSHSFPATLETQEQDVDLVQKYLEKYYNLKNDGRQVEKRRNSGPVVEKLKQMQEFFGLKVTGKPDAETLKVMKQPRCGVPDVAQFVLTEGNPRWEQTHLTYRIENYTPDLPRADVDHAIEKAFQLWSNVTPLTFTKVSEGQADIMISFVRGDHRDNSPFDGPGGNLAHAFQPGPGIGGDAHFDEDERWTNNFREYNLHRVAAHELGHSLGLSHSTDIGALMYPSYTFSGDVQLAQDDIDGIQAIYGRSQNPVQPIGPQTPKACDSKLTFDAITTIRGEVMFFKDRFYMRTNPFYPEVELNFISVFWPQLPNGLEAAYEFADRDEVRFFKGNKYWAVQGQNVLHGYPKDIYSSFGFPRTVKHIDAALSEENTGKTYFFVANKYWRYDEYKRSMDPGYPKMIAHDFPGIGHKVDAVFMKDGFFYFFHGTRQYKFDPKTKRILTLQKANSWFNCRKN

[2] = biological target: 72 kDa type IV collagenase (Homo sapiens) (UniProt P08253); assay: Inhibition of human recombinant gelatinase-A (MMP-2) at 10e-4 M (No significant activity)
Sequence of 72 kDa type IV collagenase (Homo sapiens) (P08253 110-660 limits assumed): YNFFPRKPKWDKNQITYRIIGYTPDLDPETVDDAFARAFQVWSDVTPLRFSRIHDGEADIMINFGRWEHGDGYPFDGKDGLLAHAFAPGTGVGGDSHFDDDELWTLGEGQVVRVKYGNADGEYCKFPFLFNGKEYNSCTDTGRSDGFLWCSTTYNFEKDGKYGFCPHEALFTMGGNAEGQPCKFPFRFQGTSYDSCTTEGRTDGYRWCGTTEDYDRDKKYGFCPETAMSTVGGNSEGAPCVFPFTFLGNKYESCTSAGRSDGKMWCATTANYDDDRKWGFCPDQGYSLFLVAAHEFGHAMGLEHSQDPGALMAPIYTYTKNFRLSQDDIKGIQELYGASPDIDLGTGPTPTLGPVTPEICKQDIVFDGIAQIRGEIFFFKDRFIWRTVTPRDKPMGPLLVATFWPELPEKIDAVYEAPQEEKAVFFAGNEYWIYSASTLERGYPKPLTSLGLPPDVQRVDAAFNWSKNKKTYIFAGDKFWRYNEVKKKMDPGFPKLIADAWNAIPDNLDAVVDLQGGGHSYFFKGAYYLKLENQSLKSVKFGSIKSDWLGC

[3] = biological target: Matrix metalloproteinase-9 (Homo sapiens) (UniProt P14780); assay: Inhibition of human recombinant Matrix metalloprotease-9 at 10e-4 M (No significant activity)
Sequence of Matrix metalloproteinase-9 (Homo sapiens) (P14780 whole entry): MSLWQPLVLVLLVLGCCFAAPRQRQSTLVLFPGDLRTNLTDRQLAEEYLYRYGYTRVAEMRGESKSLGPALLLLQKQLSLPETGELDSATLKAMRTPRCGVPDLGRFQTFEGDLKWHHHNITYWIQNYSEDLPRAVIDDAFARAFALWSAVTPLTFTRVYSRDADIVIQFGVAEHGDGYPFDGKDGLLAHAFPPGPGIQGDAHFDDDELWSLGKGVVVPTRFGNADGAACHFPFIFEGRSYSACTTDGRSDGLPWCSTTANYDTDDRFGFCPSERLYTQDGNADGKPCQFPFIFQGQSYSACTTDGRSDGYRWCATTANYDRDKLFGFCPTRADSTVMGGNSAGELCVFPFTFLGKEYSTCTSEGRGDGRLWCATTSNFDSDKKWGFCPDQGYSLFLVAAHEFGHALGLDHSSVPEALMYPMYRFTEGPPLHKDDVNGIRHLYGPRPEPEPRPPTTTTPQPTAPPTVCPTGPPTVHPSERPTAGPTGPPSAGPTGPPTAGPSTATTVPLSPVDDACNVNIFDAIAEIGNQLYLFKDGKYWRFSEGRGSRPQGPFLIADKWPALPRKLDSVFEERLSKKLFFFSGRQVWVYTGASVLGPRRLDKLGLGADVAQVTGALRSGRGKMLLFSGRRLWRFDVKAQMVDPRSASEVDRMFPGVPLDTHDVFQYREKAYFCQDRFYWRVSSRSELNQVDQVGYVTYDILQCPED

Measured: Activity

CNC(=O)[C@H](Cc1c[nH]c2ccccc12)NC(=O)[C@H]1CCC[C@@H](P(=O)(O)O)N1
inactive: all assays above

CNC(=O)[C@H](Cc1c[nH]c2ccccc12)NC(=O)[C@@H]1CCC[C@@H](P(=O)(O)O)N1
inactive: all assays above
